According to patent US20220117913A1, “DEZOCINE DERIVATIVE AND MEDICAL USE THEREOF” (YANGTZE RIVER PHARMACEUTICAL GROUP CO., LTD., priority 2019, published 2022):
Counter-ions that a name gives are not always drawn. Like-named read-outs stand apart in the source and are kept apart here.

Columns and labels:
μ opioid receptor = μ opioid receptor (Homo sapiens, UniProt P35372); assay: radioisotope ligand competitive binding assay, μ opioid receptor (MOR)
κ opioid receptor = κ opioid receptor (Homo sapiens, UniProt P41145); assay: radioisotope ligand competitive binding assay, κ opioid receptor (KOR)
Description: (§1) Through the radioisotope ligand competitive binding assay, IC50 of the compound was used as an indicator to evaluate the affinity of the compound to κ and δ opioid receptors.
(§2) (1) Reagents • The cell membrane was extracted from stably transfected cells constructed by WuXi AppTec, Shanghai. • 3H-diprenophrine (PerkinElmer, Cat: NET1121250UC, Lot: 2143599) • 3H-DAMGO (PerkinElmer, Cat: NET902250UC, Lot: 2139100) • 3H-DADLE (PerkinElmer, Cat: NET648250UC, Lot: 2060549) • Tris base (Sigma, Cat: T6066-1KG), prepare 1M stock and adjust pH to 7.4. • 0.5M EDTA (Invitrogen, Cat: 15575-038) • 1M MgCl2 (Sigma, Cat: M1028-100 ml) • PEI (Poly ethyleneimine) (Sigma, Cat: P3143) • Microscint 20 cocktail (PerkinElmer, Cat: 6013329) • Naltrindole (Sigma, Cat; N115) • (±)trans-U-50488 (Sigma, Cat: D8040) • DAMGO (Sigma, Cat: E7384)
(§3) (1) 1 μL of the test compounds, negative control (i.e., DMSO) and positive control (i.e., non-specific binding well compound), after being prepared, were respectively transferred to a 96-well plate;
(§4) (2) 99 μL of the prepared opioid receptor membrane protein was added to each well of the 96-well plate containing 1 μL of the compound;
(§5) (3) 100 μL of 2× corresponding radioisotope ligand was added to each well;
(§6) (4) The plate was placed on a shake and incubated at room temperature for 1 hour;
(§7) (5) Each well of the GF/C plate was soaked with 50 μL of 0.3% PEI for at least half an hour in advance;
(§8) (6) After the incubation was finished, the GF/C plate was washed with plate washing buffer once by using Harvest. Then, the cell membranes in the 96-well plate were collected onto the GF/C plate using Harvest, and the GF/C plate was washed four times with the plate washing buffer, each time about 250 μL;
(§9) (7) The GF/C plate was placed in an oven at 50° C. for 1 hour;
(§10) (8) The bottom of the GF/C plate was sealed with a plate sealing film, 50 μL of Microscint-20 scintillation fluid was added to each well, and then the plate was sealed with a transparent sealing film for microplate;
(§11) (9) The radioactive signal value CPM was read using MicroBeta2;
(§12) (10) The data was analyzed with Prism 5. The percentage inhibition rate was calculated with the calculation formula: % Inh=(1-Background subtracted Assay value/Background subtracted HC value)*100.

δ opioid receptor = δ opioid receptor (Homo sapiens, UniProt P41143); assay: radioisotope ligand competitive binding assay, δ opioid receptor (DOR)
Description: as §1, §2, §3, §4, §5, §6, §7, §8, §9, §10, §11, §12

[1] = tested on: pain induced by heat radiation in mice; assay: pain induced by heat radiation in mice (light and heat-induced pain); type: in vivo; settings: for ED50: Mus musculus
Description: (§13) A mode of pain induced by heat radiation in mice and a mode of pain induced by hot plate in mice were used to evaluate the analgesic intensity of the test compounds.

[2] = pharmacokinetic investigation of intravenous administration in mice; type: in vivo; settings: mouse; male mice, intravenous injection, plasma
Protocol: Male mice were injected intravenously with the compound of the present disclosure, and the concentration of the unchanged compound in plasma and the concentration of the metabolite of dezocine hydrochloride were measured after the administration.

[3] = tested on: pain induced by hot plate in mice; assay: pain induced by hot plate in mice; type: in vivo; settings: Mus musculus; male mice
Description: as §13

[4] = [3H]DAMGO 0.5 nM, cell membrane of stably transfected cells, read-out: μ IC50
[5] = [3H]Diprenorphine 0.3 nM, cell membrane of stably transfected cells, read-out: κ IC50
[6] = [3H]-DADLE 0.5 nM, cell membrane of stably transfected cells, read-out: δ IC50
[7] = female mice, read-out: Light and heat-induced pain ED50 Female
[8] = male mice, read-out: Light and heat-induced pain ED50 Male

| Compound | IC50 (μ opioid receptor; [4]) [nM] | IC50 (κ opioid receptor; [5]) [nM] | IC50 (δ opioid receptor; [6]) [nM] | also measured |
| --- | --- | --- | --- | --- |
| CN[C@H]1[C@H]2CCCCC[C@]1(C)c1cc(O)ccc1C2 [Hydrochloride of compound 18] | 10 to 100 | 100 to 1000 | 1000 to 10000 | – |
| C[C@@]12CCCCC[C@@H](Cc3ccc(O)cc31)[C@@H]2NCCc1ccccc1 [Hydrochloride of compound 25] | < 10 | 100 to 1000 | 100 to 1000 | ED50 [1, 7]: 1.15 mg/kg; ED50 [1, 8]: 0.74 mg/kg; Light and heat-induced pain ED95 Female ([1]; female mice): 2.88 mg/kg; Light and heat-induced pain ED95 Male ([1]; male mice): 1.18 mg/kg; half-life [2]: 1.65 h |
| COc1ccc2c(c1)[C@@]1(C)CCCCC[C@@H](C2)[C@@H]1NC(C)C [Hydrochloride of compound 6] | 1000 to 10000 | 1000 to 10000 | > 10000 | – |
| C[C@@]12CCCCC[C@@H](Cc3ccc(O)cc31)[C@@H]2NCC1CC1 [Hydrochloride of compound 24] | 10 to 100 | 100 to 1000 | 1000 to 10000 | – |
| CN[C@H]1[C@H]2CCCCC[C@]1(C)c1cc(OC)ccc1C2 [Hydrochloride of compound 1] | 100 to 1000 | 1000 to 10000 | > 10000 | – |
| CCCCN[C@H]1[C@H]2CCCCC[C@]1(C)c1cc(OC)ccc1C2 [Hydrochloride of compound 4] | 10 to 100 | 1000 to 10000 | 1000 to 10000 | – |
| C[C@@]12CCCCC[C@@H](Cc3ccc(O)cc31)[C@@H]2N1CCCC1 [Hydrochloride of compound 29] | 10 to 100 | 1000 to 10000 | 1000 to 10000 | – |
| COc1ccc2c(c1)[C@@]1(C)CCCCC[C@@H](C2)[C@@H]1NCC1CC1 [Hydrochloride of compound 7] | 100 to 1000 | 100 to 1000 | > 10000 | – |
| CCN[C@H]1[C@H]2CCCCC[C@]1(C)c1cc(OC)ccc1C2 [Hydrochloride of compound 2] | 100 to 1000 | 1000 to 10000 | > 10000 | – |
| CCOc1ccc2c(c1)[C@@]1(C)CCCCC[C@@H](C2)[C@@H]1NC [Hydrochloride of compound 37] | 1000 to 10000 | 1000 to 10000 | > 10000 | – |
| COc1ccc2c(c1)[C@@]1(C)CCCCC[C@@H](C2)[C@@H]1NCc1ccccc1 [Hydrochloride of compound 9] | 100 to 1000 | 100 to 1000 | 1000 to 10000 | – |
| C[C@@]12CCCCC[C@@H](Cc3ccc(OCc4ccccc4)cc31)[C@@H]2NCc1ccccc1 [Hydrochloride of compound 39] | < 10 | 100 to 1000 | 100 to 1000 | – |
| COc1ccc2c(c1)[C@@]1(C)CCCCC[C@@H](C2)[C@@H]1N(C)C [Hydrochloride of compound 11] | 100 to 1000 | > 10000 | > 10000 | – |
| C[C@@]12CCCCC[C@@H](Cc3ccc(O)cc31)[C@@H]2N (relative stereo) [dezocine hydrochloride, (−)-[5R-(5a,11a,13S*)]-13-amino-5,6,7,8,9,10,11,12-octahydro-5-methyl-5,11-methylene benzocyclodecen-3-ol, reference compound] | – | – | – | half-life [2]: 0.903 h |
| COc1ccc2c(c1)[C@@]1(C)CCCCC[C@@H](C2)[C@@H]1N1CCCC1 [Hydrochloride of compound 12] | 1000 to 10000 | > 10000 | > 10000 | – |
| CCCN[C@H]1[C@H]2CCCCC[C@]1(C)c1cc(OC)ccc1C2 [Hydrochloride of compound 3] | 10 to 100 | 100 to 1000 | > 10000 | – |
| CCN[C@H]1[C@H]2CCCCC[C@]1(C)c1cc(O)ccc1C2 [Hydrochloride of compound 19] | < 10 | 10 to 100 | 1000 to 10000 | – |
| CCCN(C)[C@H]1[C@H]2CCCCC[C@]1(C)c1cc(OC)ccc1C2 [Hydrochloride of compound 14] | 100 to 1000 | 1000 to 10000 | > 10000 | – |

| Compound | IC50 (μ opioid receptor; [4]) [nM] | IC50 (κ opioid receptor; [5]) [nM] | IC50 (δ opioid receptor; [6]) [nM] | also measured |
| --- | --- | --- | --- | --- |
| COc1ccc2c(c1)[C@@]1(C)CCCCC[C@@H](C2)[C@@H]1N(C)Cc1ccccc1 [Hydrochloride of compound 17] | 100 to 1000 | > 10000 | > 10000 | – |
| CCCCCN(C)[C@H]1[C@H]2CCCCC[C@]1(C)c1cc(O)ccc1C2 [Hydrochloride of compound 33] | < 10 | 100 to 1000 | 100 to 1000 | – |
| CC(C)N[C@H]1[C@H]2CCCCC[C@]1(C)c1cc(O)ccc1C2 [Hydrochloride of compound 23] | 10 to 100 | 100 to 1000 | 1000 to 10000 | – |
| CN(CCc1ccccc1)[C@H]1[C@H]2CCCCC[C@]1(C)c1cc(O)ccc1C2 [Hydrochloride of compound 30] | < 10 | 10 to 100 | 10 to 100 | – |
| CN[C@H]1[C@H]2CCCCC[C@]1(C)c1cc(OCc3ccccc3)ccc1C2 [Hydrochloride of compound 38] | 10 to 100 | 1000 to 10000 | 1000 to 10000 | – |
| COc1ccc2c(c1)[C@@]1(C)CCCCC[C@@H](C2)[C@@H]1NCCc1ccccc1 [Hydrochloride of compound 8] | 10 to 100 | > 10000 | > 10000 | – |
| CCCCCN[C@H]1[C@H]2CCCCC[C@]1(C)c1cc(O)ccc1C2 [Hydrochloride of compound 22] | < 10 | 10 to 100 | 10 to 100 | ED50 [1, 7]: 0.18 mg/kg; ED50 [1, 8]: 0.13 mg/kg; Light and heat-induced pain ED95 Female ([1]; female mice): 0.26 mg/kg; analgesic effect (comparison in words) ([1]; four mouse models of pain (heat radiation and hot plate), versus dezocine): stronger than dezocine; Light and heat-induced pain ED95 Male ([1]; male mice): 0.26 mg/kg; ED50 [3]: 0.3 mg/kg; half-life [2]: 1.24 h |
| CN(C)[C@H]1[C@H]2CCCCC[C@]1(C)c1cc(O)ccc1C2 [Hydrochloride of compound 28] | < 10 | 100 to 1000 | 1000 to 10000 | – |
| C[C@@]12CCCCC[C@@H](Cc3ccc(O)cc31)[C@@H]2NCCc1ccc(Cl)c(Cl)c1 [Hydrochloride of compound 27] | 10 to 100 | 10 to 100 | 100 to 1000 | – |
| COc1ccc2c(c1)[C@@]1(C)CCCCC[C@@H](C2)[C@@H]1NCCc1ccc(Cl)c(Cl)c1 [Hydrochloride of compound 10] | 100 to 1000 | 1000 to 10000 | > 10000 | – |
| CCCCCN(C)[C@H]1[C@H]2CCCCC[C@]1(C)c1cc(OC)ccc1C2 [Hydrochloride of compound 16] | 100 to 1000 | > 10000 | > 10000 | – |
| CCCCN(C)[C@H]1[C@H]2CCCCC[C@]1(C)c1cc(O)ccc1C2 [Hydrochloride of compound 32] | < 10 | 10 to 100 | 10 to 100 | – |
| C[C@@]12CCCCC[C@@H](Cc3ccc(OCc4ccccc4)cc31)[C@@H]2N [Hydrochloride of compound 36] | 10 to 100 | 1000 to 10000 | 1000 to 10000 | – |
| CN(Cc1ccccc1)[C@H]1[C@H]2CCCCC[C@]1(C)c1cc(OCc3ccccc3)ccc1C2 [Hydrochloride of compound 40] | < 10 | < 10 | 10 to 100 | – |
| CCOc1ccc2c(c1)[C@@]1(C)CCCCC[C@@H](C2)[C@@H]1N [Hydrochloride of compound 35] | – | – | – | IC50 (μ opioid receptor): 100 to 1000 nM; IC50 (κ opioid receptor): > 10000 nM; IC50 (δ opioid receptor): > 10000 nM |
| CCCN(C)[C@H]1[C@H]2CCCCC[C@]1(C)c1cc(O)ccc1C2 [Hydrochloride of compound 31] | < 10 | 100 to 1000 | 10 to 100 | – |
| COc1ccc2c(c1)[C@@]1(C)CCCCC[C@@H](C2)[C@@H]1N(C)CCc1ccccc1 [Hydrochloride of compound 13] | 100 to 1000 | > 10000 | > 10000 | – |
